Data: patent EP4813463A2, “TYK2 INHIBITORS AND COMPOSITIONS AND METHODS THEREOF” (Lynk Pharmaceuticals Co. Ltd., priority 2023, dated 2024)

How the values were obtained:
TYK2-JH2 domain = molecular target: T1, TYK2-JH2 domain (Homo sapiens, UniProt P29597); assay: Binding activity test for JH2 domain of TYK2 (Tb-antibody/tracer FRET); conditions: for IC50: JH2 domain enzyme, 60 min at 25°C, then 4°C overnight, read-out: TYK2 JH2 Binding IC50; for JAK1/TYK2 selectivity: ratio of JAK1 JH2 to TYK2 JH2 binding IC50
T1 construct: JAK1-JH2 domain or TYK2-JH2 domain enzyme in assay buffer
T1 sequence (P29597 589-875 limits assumed): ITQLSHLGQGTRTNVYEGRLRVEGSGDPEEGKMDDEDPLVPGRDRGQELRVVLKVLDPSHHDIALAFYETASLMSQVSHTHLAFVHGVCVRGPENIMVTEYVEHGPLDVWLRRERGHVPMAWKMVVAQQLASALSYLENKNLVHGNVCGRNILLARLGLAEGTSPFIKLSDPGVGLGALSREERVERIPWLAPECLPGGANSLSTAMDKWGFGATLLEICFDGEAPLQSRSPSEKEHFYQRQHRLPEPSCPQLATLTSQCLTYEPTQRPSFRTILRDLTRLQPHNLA
Method in brief: (§1)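 Competitive TR-FRET binding: compounds dispensed as an 11-point 3-fold dilution series, then Tb-labelled antibody and tracer added to the JH2 protein system. Incubated at 25°C, then overnight at 4°C; FRET signal read on Envision and IC50 (nM) derived.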

JAK1-JH2 domain = molecular target: T2, JAK1-JH2 domain (Homo sapiens, UniProt P23458); assay: Binding activity test for JH2 domain of JAK1 (Tb-antibody/tracer FRET); conditions: JH2 domain enzyme; 60 min at 25°C, then 4°C overnight; read-out: JAK1 JH2 Binding IC50
T2 construct: JAK1-JH2 domain or TYK2-JH2 domain enzyme in assay buffer
T2 sequence (P23458 583-855 limits assumed): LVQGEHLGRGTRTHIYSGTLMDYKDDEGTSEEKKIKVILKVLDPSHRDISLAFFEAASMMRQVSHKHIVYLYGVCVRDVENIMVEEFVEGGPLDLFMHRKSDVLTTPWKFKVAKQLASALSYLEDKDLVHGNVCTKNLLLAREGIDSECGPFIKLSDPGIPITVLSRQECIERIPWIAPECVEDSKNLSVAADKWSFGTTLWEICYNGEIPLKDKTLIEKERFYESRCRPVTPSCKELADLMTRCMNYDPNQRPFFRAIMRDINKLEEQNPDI
Method in brief: as §1

[1] = test system: Ba/F3-FL-TYK2-P760L cells; assay: Anti-proliferative assay in engineered Ba/F3 cells (Cell-Titer Glo, 72 h); type: cell-based; conditions: Mus musculus, BaF3, 72 h, 72 h compound treatment, concentration that causes 50% growth inhibition, read-out: Baf3-FL-T2P760L
Method in brief: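 Ba/F3 cells carrying Tel-dimerization/JAK kinase fusion, IL-3-independent, in RPMI-1640 + 10% FBS; 9-point 3-fold dilutions from 20 µM (0.1% DMSO) added after 24 h, 72 h at 37 °C. Viability by Cell-Titer Glo ATP luminescence; % inhibition versus DMSO cells, blank-corrected, giving IC50.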

SMILES | IC50 (TYK2-JH2 domain) | JAK1/TYK2 selectivity (TYK2-JH2 domain) | IC50 (JAK1-JH2 domain) | IC50 [1]
[2H]C([2H])([2H])NC(=O)c1cnc(NC(=O)C2CC2)cc1Nc1nn(C)c2ccc([C@@H](OC([2H])([2H])[2H])C(F)(F)F)c(OC)c12 [Example 55B, (R)-6-(cyclopropanecarboxamido)-4-((4-methoxy-1-methyl-5-(2,2,2-trifluoro-1-(methoxy-d3)ethyl)-1H-indazol-3-yl)amino)-N-(methyl-d3)nicotinamide] | 0.08 nM | 153.54 | 12.3 nM | 16.2 nM
COC(=O)c1cnc(NC(=O)C2CC2)cc1Nc1nn(C)c2ccc([C@@H](OC)C(F)(F)F)c(OC)c12 [Example 45A, Methyl (R)-6-(cyclopropanecarboxamido)-4-((4-methoxy-1-methyl-5-(2,2,2-trifluoro-1-methoxyethyl)-1H-indazol-3-yl)amino)nicotinate] | 0.826 nM | >361.38 | > 298 nM | 110 nM
[2H]C([2H])([2H])NC(=O)c1cnc(NC(=O)C2CC2)cc1Nc1cnn2cccc(OC)c12 [Example 44, 6-(Cyclopropanecarboxamido)-4-((4-methoxypyrazolo[1,5-a]pyridin-3-yl)amino)-N-(methyl-d3)nicotinamide] | 2.8 nM | 21.5 | 60.2 nM | 356 nM
COC(=O)c1cnc(NC(=O)C2CC2)cc1Nc1nn(C)c2ccc(C(C)C(F)(F)F)c(OC)c12 (stereo not drawn) [Example 123, Methyl 6-(cyclopropanecarboxamido)-4-((4-methoxy-1-methyl-5-(1,1,1-trifluoropropan-2-yl)-1H-indazol-3-yl)amino)nicotinate] | 0.37 nM | 470.33 | 174 nM | 88.3 nM
CCOC(=O)c1cnc(NC(=O)C2CC2)nc1Nc1cccc(-c2ncn(C)n2)c1OC [Example 57, Ethyl 2-(cyclopropanecarboxamido)-4-((2-methoxy-3-(1-methyl-1H-1,2,4-triazol-3-yl)phenyl)amino)pyrimidine-5-carboxylate] | 7.33 nM | >40.75 | > 298 nM | 719 nM
[2H]C([2H])([2H])NC(=O)c1cnc(NC(=O)C2CC2)cc1Nc1cnn2ccc(C(F)(F)F)c(OC)c12 [Example 10, 6-(Cyclopropanecarboxamido)-4-((4-methoxy-5-(trifluoromethyl)pyrazolo[1,5-a]pyridin-3-yl)amino)-N-(methyl-d3)nicotinamide] | 0.224 nM | 43.3 | 9.71 nM | 120 nM
COC1CN(c2ccc3nc(Nc4cc(NC(=O)C5CC5)ncc4C(C)(F)F)nn3c2)C1 [Example 176, N-(5-(1,1-difluoroethyl)-4-((6-(3-methoxyazetidin-1-yl)-[1,2,4]triazolo[1,5-a]pyridin-2-yl)amino)pyridin-2-yl)cyclopropanecarboxamide] | 0.768 nM | 22.21 | 17.1 nM | 13.3 nM
CCOC(=O)c1cnc(NC(=O)C2CC2)cc1Nc1cnn2ccc([C@H](O)C(F)(F)F)c(OC)c12 [Example 83, (S)-ethyl 6-(cyclopropanecarboxamido)-4-((4-methoxy-5-(2,2,2-trifluoro-1-hydroxyethyl)pyrazolo[1,5-a]pyridin-3-yl)amino)nicotinate] | 0.76 nM | >393.28 | > 298 nM | 173 nM
[2H]C([2H])([2H])NC(=O)c1cnc(Nc2cc(CN3CCOCC3)n(C)n2)cc1Nc1nn(C)c2ccc([C@H](OC)C(F)(F)F)c(OC)c12 [Example 182, (S)-4-((4-Methoxy-1-methyl-5-(2,2,2-trifluoro-1-methoxyethyl)-1H-indazol-3-yl)amino)-N-(methyl-d3)-6-((1-methyl-5-(morpholinomethyl)-1H-pyrazol-3-yl)amino)nicotinamide] | 0.141 nM | 13.95 | 1.97 nM | 0.817 nM
COc1c(Nc2cc(NC(=O)C3CC3)ncc2C(C)(F)F)cccc1-c1cnn(C)n1 [Example 168, N-(5-(1,1-difluoroethyl)-4-((2-methoxy-3-(2-methyl-2H-1,2,3-triazol-4-yl)phenyl)amino)pyridin-2-yl)cyclopropanecarboxamide] | 0.27 nM | 3.81 | 1.03 nM | 19.1 nM
[2H]C([2H])([2H])NC(=O)c1cnc(Nc2ccc(N3CCOCC3)cn2)cc1Nc1nn(C)c2ccc([C@H](OC)C(F)(F)F)c(OC)c12 [Example 173, (S)-4-((4-methoxy-1-methyl-5-(2,2,2-trifluoro-1-methoxyethyl)-1H-indazol-3-yl)amino)-N-(methyl-d3)-6-((5-morpholinopyridin-2-yl)amino)nicotinamide] | 0.161 nM | 14.83 | 2.39 nM | 0.401 nM
COC(=O)c1cnc(NC(=O)C2CC2)cc1Nc1n[nH]c2ccc(C(OC)C(F)(F)F)c(OC)c12 (stereo not drawn) [Example 113, Methyl 6-(cyclopropanecarboxamido)-4-((4-methoxy-5-(2,2,2-trifluoro-1-methoxyethyl)-1H-indazol-3-yl)amino)nicotinate] | 0.258 nM | 288.80 | 74.5 nM | > 1000 nM
[2H]C([2H])([2H])NC(=O)c1cnc(NC(=O)C2CC2)cc1Nc1cnn2ccc(COC)c(OC)c12 [Example 16, 6-(Cyclopropanecarboxamido)-4-((4-methoxy-5-(methoxymethyl)pyrazolo[1,5-a]pyridin-3-yl)amino)-N-(methyl-d3)nicotinamide] | 0.22 nM | 64.0 | 14.1 nM | 87 nM
[2H]C([2H])([2H])n1nc(Nc2cc(NC(=O)C3CC3)ncc2C(=O)OC)c2c(OC)c([C@H](OC)C(F)(F)F)ccc21 [Example 52A, Methyl (S)-6-(cyclopropanecarboxamido)-4-((4-methoxy-1-(methyl-d3)-5-(2,2,2-trifluoro-1-methoxyethyl)-1H-indazol-3-yl)amino)nicotinate] | 0.082 nM | 501.71 | 41.1 nM | 3.56 nM
COC(=O)c1cnc(NC(=O)C2CC2)cc1Nc1cccc(-c2ncn(C)n2)c1OC [Example 58, Methyl 6-(cyclopropanecarboxamido)-4-((2-methoxy-3-(1-methyl-1H-1,2,4-triazol-3-yl)phenyl)amino)nicotinate] | 0.304 nM | 39.30 | 11.9 nM | 32.4 nM
COC(=O)c1cnc2cc1Nc1cc(cc(-c3ccn(C)n3)c1OC)CCOCc1cccc(n1)N2 [Example 105, Methyl 10-methoxy-11-(1-methyl-1H-pyrazol-3-yl)-16-oxa-2,4,8,22-tetraazatetracyclo[16.3.1.1^{3,7}.1^{9,13}]tetracosa-1(22),3,5,7(24),9(23),10,12,18,20-nonaene-6-carboxylate] | 1.21 nM | 191.94 | 232 nM | 66.8 nM
[2H]C([2H])([2H])OC(=O)c1cnc(NC(=O)C2CC2)cc1Nc1ncn2ncc(C(OC)C(F)(F)F)c2c1OC (stereo not drawn) [Example 81, Methyl-d3 6-(cyclopropanecarboxamido)-4-((4-methoxy-3-(2,2,2-trifluoro-1-methoxyethyl)pyrazolo[1,5-c]pyrimidin-5-yl)amino)nicotinate] | 4.02 nM | >74.25 | > 298 nM | 306 nM
COC(=O)c1cnc(NC(=O)C2CC2)cc1Nc1nn(C)c2ccc(C(OC)C(F)(F)F)c(OC)c12 (stereo not drawn) [Example 45, Methyl 6-(cyclopropanecarboxamido)-4-((4-methoxy-1-methyl-5-(2,2,2-trifluoro-1-methoxyethyl)-1H-indazol-3-yl)amino)nicotinate] | 0.209 nM | 307.51 | 64.3 nM | 8.61 nM
[2H]C([2H])([2H])OC(=O)c1cnc(NC(=O)C2CC2)cc1Nc1ncn2ncc(CC)c2c1OC [Example 59, Methyl-d3 6-(cyclopropanecarboxamido)-4-((3-ethyl-4-methoxypyrazolo[1,5-c]pyrimidin-5-yl)amino)nicotinate] | 0.834 nM | 52.94 | 44.1 nM | 208 nM
[2H]C([2H])([2H])NC(=O)c1cnc(NC(=O)C2CC2)cc1Nc1cnn2ccc([C@H](OC([2H])([2H])[2H])C(F)(F)F)c(OC)c12 [Example 28, (S)-6-(cyclopropanecarboxamido)-4-((4-methoxy-5-(2,2,2-trifluoro-1-(methoxy-d3)ethyl)pyrazolo[1,5-a]pyridin-3-yl)amino)-N-(methyl-d3)nicotinamide] | 0.073 nM | 102.5 | 7.48 nM | 10.7 nM
[2H]C([2H])([2H])O[C@@H](c1ccc2c(c(Nc3cc(NC(=O)C4CC45CC5)ncc3C(=O)OC)nn2C)c1OC)C(F)(F)F (stereo partly drawn) [Example 136, Methyl 4-((4-methoxy-1-methyl-5-((S)-2,2,2-trifluoro-1-(methoxy-d3)ethyl)-1H-indazol-3-yl)amino)-6-(spiro[2.2]pentane-1-carboxamido)nicotinate] | 0.21 nM | 370.63 | 77.8 nM | 21.2 nM
